Laboratory results published in patent US20210379010A1, “COMPOSITIONS COMPRISING CANNABINOIDS FOR USE IN THE TREATMENT OF BIOFILM AND CONDITIONS ASSOCIATED WITH MICROBIAL, FUNGAL, BACTERIAL INFECTIONS” (Yissum Research Development Company of The Hebrew …, priority 2018, published 2021).
Several values for one entry are separate records, joined by “and”; a condition that tells them apart may be missing. Equal entries are not always repeated.

Key:
S. mutans biofilm [1] = experiment: S. mutans biofilm formation inhibition; assay type: cell-based; conditions: highest tested dose of 64 μg/ml
S. aureus MRSA 24433 = experiment: Growth of MRSA 24433, cannabinoid alone and combined with antibiotic (MIC/FIC/FICI); assay type: cell-based; conditions: MRSA 24433 growth; for MIC AEA: AEA alone; for FIC AEA: MIC of AEA in combination with methicillin
[2] = tested on: S. aureus MRSA 24433 biofilm; experiment: Biofilm formation of MRSA 24433, cannabinoid alone and combined with antibiotic (MBIC/FBIC/FBICI); assay type: cell-based; conditions: for MBIC AEA: AEA alone; for FBIC AEA: MBIC of AEA in combination with methicillin
S.aureus MRSA 33592 = experiment: Growth of MRSA 33592, cannabinoid alone and combined with antibiotic (MIC/FIC/FICI); assay type: cell-based; conditions: MRSA 33592 growth; for MIC AEA: AEA alone, in µg/mL
[3] = tested on: S.aureus MRSA 33592 biofilm; experiment: Biofilm formation of MRSA 33592, cannabinoid alone and combined with antibiotic (MBIC/FBIC/FBICI); assay type: cell-based; conditions: for MBIC AEA: AEA alone
S.aureus MRSA 43300 = experiment: Growth of MRSA 43300, cannabinoid alone and combined with antibiotic (MIC/FIC/FICI); assay type: cell-based; conditions: MRSA 43300 growth; for MIC AEA: AEA alone
[4] = tested on: S.aureus MRSA 43300 biofilm; experiment: Biofilm formation of MRSA 43300, cannabinoid alone and combined with antibiotic (MBIC/FBIC/FBICI); assay type: cell-based; conditions: for MBIC AEA: AEA alone
[5] = tested on: V. harveyi quorum sensing; experiment: Quorum sensing assay, relative bioluminescence of V. harveyi mutant strains; assay type: cell-based; conditions: sub-MIC concentrations, dose response up to 100 μg/ml
Description: FIG. 6 Relative Bioluminescence Unit (LUM/(O.D(595 nm))) (RLU) of different mutant strains of bacteria V. harveyi when exposed to different sub-MIC concentrations of AEA.

C. albicans biofilm = experiment: MTT assay of C. albicans biofilm; assay type: cell-based
Method: To investigate the effect of the agents on preformed biofilms, biofilms were allowed to mature in for 24 h at 37° C. in a 6-well plate. The biofilms were washed twice with PBS. The active agents were then applied. The plates were further incubated for 24 h at 37° C. The amounts of biofilms, were determined quantitatively using a standard MTT reduction assay as described previously. Briefly, biofilms were overlaid with […] of 3-(4,5-dimethyl-2-thiazolyl)-2,5-diphenyl-2H-tetrazolium bromide (MTT) and incubated for 2 h at 37° C. Under these conditions, the lightly yellowish MTT was reduced to a blue tetrazolium salt accumulated within the metabolic active biofilms. The stain was then dissolved in DMSO and the absorbance value was measured at 570 nm. The accumulation of tetrazolium salt by the reduction of MTT is proportional to the number of viable cells growing in biofilm. Prior to dissolving in DMSO, biofilms were photographed and visualized. Assay was performed in triplicate.

P. aeruginosa biofilm = experiment: CLSM of treated P. aeruginosa biofilm
MRSA strain CI = experiment: Colony spreading on soft agar, MRSA CI; conditions: AEA 64 μg/ml
Method: (§1) The swimming assay was performed on soft agar plates. 0.2% agar medium was prepared and autoclaved. The bacteria were exposed to the tested agents. 3 μl of overnight bacterial culture (O.D 595˜0.5) was inoculated at the centre of the agar plate. […] The plates were then incubated for 15 h.

MRSA strain 33592 = experiment: Colony spreading on soft agar, MRSA 33592; conditions: AEA 64 μg/ml
Method: as §1

MRSA strain 43300 = experiment: Colony spreading on soft agar, MRSA 43300; conditions: AEA 64 μg/ml
Method: as §1

S. mutans biofilm [6] = experiment: CLSM live/dead staining of S. mutans biofilm
Method: The bacterial viability and vitality of was analyzed by CLSM (Olympus Fluoview 300, Olympus, Japan) with a UPLSA 10×/0.4 lenses. The biofilm samples were grown overnight on 96 well. The biofilm was washed carefully using 200 μl PBS solution after overnight incubation, and then stained with 50 μl of LIVE/DEAD BacLight fluorescent dye (Invitrogen Life Technologies, Carlsbad, Calif., USA) (1:100) for 20 min in the dark, at room temperature. This staining allowed to distinguish the live organisms from the dead ones. […] The biofilm thickness was examined by generating the optical sections that were acquired at spacing steps of 10 μm Image J program (The National Institute of Health) was used for fluorescence analysis which calculates the fluorescence intensity per area for each color separately.

CCCCC/C=C\C/C=C\C/C=C\C/C=C\CCCC(=O)NCCO [AEA, arachidonoyl ethanolamide]
inhibition of S. mutans biofilm formation (S. mutans biofilm [1]): 45% | MIC AEA (S. aureus MRSA 24433; Table 1): >64 µg/mL | MIC AEA (S. aureus MRSA 24433; Table 6B): > 256 µg/mL | FIC AEA (S. aureus MRSA 24433; Table 1): 16 µg/mL | FIC AEA (S. aureus MRSA 24433; Table 6B): 16 | MBIC AEA ([2]; Table 1): 32 µg/mL | MBIC AEA ([2]; Table 6B): 32 | FBIC AEA ([2]; Table 1): 8 µg/mL | FBIC AEA ([2]; Table 6B): 8 | MIC AEA (S.aureus MRSA 33592; Table 6A): >256 | MIC AEA (S.aureus MRSA 33592; Table 7): >256 | MIC AEA (S.aureus MRSA 33592; Table 8A): >256 | decrease of MIC in combination (S.aureus MRSA 33592; AEA with gentamicin vs agent alone): more than 32 fold | FIC AEA (S.aureus MRSA 33592; MIC of AEA in combination with ampicillin, Table 8A): 8 | FIC AEA (S.aureus MRSA 33592; MIC of AEA in combination with gentamicin, Table 7): 8 | FIC AEA (S.aureus MRSA 33592; MIC of AEA in combination with methicillin, Table 6A): 16 | MBIC AEA ([3]; Table 6A): 64 | MBIC AEA ([3]; Table 7): 64 | MBIC AEA ([3]; Table 8A): 64 | FBIC AEA ([3]; MBIC of AEA in combination with ampicillin, Table 8A): 8 | FBIC AEA ([3]; MBIC of AEA in combination with gentamicin, Table 7): 8 | FBIC AEA ([3]; MBIC of AEA in combination with methicillin, Table 6A): 8 | MIC AEA (S.aureus MRSA 43300; Table 6C): > 256 µg/mL | MIC AEA (S.aureus MRSA 43300; Table 8B): > 256 µg/mL | FIC AEA (S.aureus MRSA 43300; MIC of AEA in combination with ampicillin, Table 8B): 16 | FIC AEA (S.aureus MRSA 43300; MIC of AEA in combination with methicillin, Table 6C): 16 | MBIC AEA ([4]; Table 6C): >256 | MBIC AEA ([4]; Table 8B): >256 | FBIC AEA ([4]; MBIC of AEA in combination with ampicillin, Table 8B): 16 | FBIC AEA ([4]; MBIC of AEA in combination with methicillin, Table 6C): 32 | quorum sensing (relative bioluminescence, AUC vs control) [5]: inhibition | C. albicans biofilm formation (MTT assay) (C. albicans biofilm): dose-dependent inhibition | layers/depth of P. aeruginosa biofilm (P. aeruginosa biofilm): reduced layers/depth of biofilm | P. aeruginosa biofilm density (P. aeruginosa biofilm; compared with PEA): more significant reduction in biofilm density | reduction of colony diameter (spreading) vs untreated control (MRSA strain CI): 88% and 88 ± 1.9% | reduction of colony diameter (spreading) vs untreated control (MRSA strain 33592): 84% and 84 ± 1.8% | reduction of colony diameter (spreading) vs untreated control (MRSA strain 43300): 73% and 73 ± 2.6% | S. mutans biofilm formation (CLSM) (S. mutans biofilm [6]): dose-dependent inhibition
